Experimental data taken from publication PMC10468298, “Umami taste perception and preferences of the domestic cat (Felis catus), an obligate carnivore” (Chemical Senses, 2023).
Like-named read-outs stand apart in the source and are kept apart here.

Experiments:
[1] = system: cats; assay: 2-bottle taste choice test, cat water panel, 18-h exposure; assay type: in vivo, domestic cat (Felis catus)
Method: The minimum panel size was n = 14, but only for one study with 80 mM MSG; in all other cases, the minimum panel size was n = 21. The maximum panel size was n = 24. […] For those cases, we have also reported the number of unique cats, as some cats were present in more than one study. All cats on the panel had previously been habituated and screened for suitability to perform this type of study. […] The cats were re-homed once they completed their tenure at the Waltham Petcare Science Institute, as per standard Waltham practice.
Solutions were made with deionized water (Purite, UK). […] In some cases, salts were purchased instead of the pure compound due to solubility, stability, or availability. For all the solutions, the pH range spanned approximately 5–8.
Choice tests for the taste compound solutions at specific concentrations were run over an 18-h period using a 2-bottle testing apparatus. […] All animal studies conformed with the Mars Animal Research Policy (www.Mars.com) and were approved by the Waltham Animal Welfare and Ethical Review Body.
Using a bespoke statistical analysis toolkit, based on R software (R Foundation, Vienna, Austria), a mixed model analysis was performed on the difference in intake (g) between water solutions, including cat (random) as a factor where appropriate. This was used to test the mean intake difference versus 0, i.e. no difference, at a 5% significance level. The mean difference in intake was reported with a 95% confidence interval. Any data errors (e.g. following manual error such as solution spillage, overflow) were removed from the final data set for analysis.

[2] = system: cats; assay: Taste choice test, cat water panel, 1-hr exposure; assay type: in vivo, domestic cat (Felis catus)
Method: All taste choice tests with 1-hr exposure period were run as outlined in the Materials and Methods, with the following differences. The minimum panel size was n = 24 and the maximum panel size was n = 25. […] The cats were water-restricted for 1-hr prior to the 1-hr water exposure period, with their first meal given in the last 20-min of the water restriction. 50 mL of each test solution was offered to the cats in round water bowls with a maximum capacity 150 mL (Flyte So Fancy, UK), which were held in bespoke bowl holders (TECHNIK – A Division of Syspal Ltd., UK).

[3] = biological target: T1, cat Tas1r1-Tas1r3 (Felis catus, UniProt A0ABI7Z2I4); design: method as in Toda et al. 2021; conditions: ref Toda et al. 2021, cited from earlier work; for Activation of cat Tas1r1-Tas1r3: tested alone
T1 sequence (A0ABI7Z2I4 entry or part of it): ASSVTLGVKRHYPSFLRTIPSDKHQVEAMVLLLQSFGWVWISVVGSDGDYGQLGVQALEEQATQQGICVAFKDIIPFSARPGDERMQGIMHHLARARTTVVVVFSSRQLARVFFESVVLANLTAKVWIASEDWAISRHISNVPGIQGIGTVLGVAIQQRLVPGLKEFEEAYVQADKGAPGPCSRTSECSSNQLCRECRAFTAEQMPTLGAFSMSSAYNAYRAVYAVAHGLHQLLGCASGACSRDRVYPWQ
T1 sequence (Q49KI5 25-865, further chain): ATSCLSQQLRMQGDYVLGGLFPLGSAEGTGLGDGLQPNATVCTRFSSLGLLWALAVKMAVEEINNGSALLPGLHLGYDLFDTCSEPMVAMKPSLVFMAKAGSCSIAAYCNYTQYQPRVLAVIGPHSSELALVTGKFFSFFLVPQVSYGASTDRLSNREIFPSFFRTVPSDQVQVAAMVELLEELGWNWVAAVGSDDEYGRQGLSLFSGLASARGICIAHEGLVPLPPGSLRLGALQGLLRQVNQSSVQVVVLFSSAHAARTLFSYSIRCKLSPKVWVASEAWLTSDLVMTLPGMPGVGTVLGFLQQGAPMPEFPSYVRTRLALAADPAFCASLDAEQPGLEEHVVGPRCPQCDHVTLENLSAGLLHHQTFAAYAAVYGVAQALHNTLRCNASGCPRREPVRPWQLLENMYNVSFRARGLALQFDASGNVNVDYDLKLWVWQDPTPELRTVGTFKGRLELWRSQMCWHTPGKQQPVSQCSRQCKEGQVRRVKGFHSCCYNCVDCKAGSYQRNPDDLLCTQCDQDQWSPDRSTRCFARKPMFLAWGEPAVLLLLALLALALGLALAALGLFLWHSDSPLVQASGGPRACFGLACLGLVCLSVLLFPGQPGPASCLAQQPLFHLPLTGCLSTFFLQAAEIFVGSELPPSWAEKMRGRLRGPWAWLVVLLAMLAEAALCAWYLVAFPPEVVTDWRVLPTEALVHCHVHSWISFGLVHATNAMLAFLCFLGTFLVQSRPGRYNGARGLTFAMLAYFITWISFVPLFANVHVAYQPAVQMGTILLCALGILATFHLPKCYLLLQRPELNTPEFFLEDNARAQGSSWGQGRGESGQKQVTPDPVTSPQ

[4] = biological target: T1, cat Tas1r1-Tas1r3; assay: Calcium mobilization assay (FLIPR) in HEK293T cells expressing cat Tas1r1-Tas1r3 and mGα15i1; conditions: for Activity as agonist or enhancer of the cat umami receptor: alone and with 0.2 mM IMP
[5] = system: cats; design: method as in Beauchamp et al. 1977; conditions: 10, 20, 40 and 80 mM versus water, 1-h; ref Beauchamp et al. 1977; cited from earlier work
[6] = system: cat Tas1r1 VFT; design: method as in Belloir et al. 2017; conditions: intrinsic tryptophan fluorescence; ref Belloir et al. 2017; cited from earlier work
[7] = system: cats; conditions: cited from earlier work; for Behavioral response of cats to the solutions: acidic solutions, ref Beauchamp et al. 1977, McGrane et al. 2013
[8] = system: cats; design: method as in White and Boudreau 1975; conditions: 0.5, 5.0 and 50.0 mM in 50 mM saline versus 50 mM saline, 24-h; ref White and Boudreau 1975; cited from earlier work
[9] = Solubility of amino acids in assay buffer / water; conditions: Tyrode's buffer pH 7.4, sonication
[10] = amino acid 25 mM versus L-Serine 25 mM
[11] = amino acid 25 mM versus L-Tryptophan 25 mM
[12] = amino acid 25 mM versus L-Asparagine 25 mM

`Nc1ncnc2c1ncn2[C@@H]1O[C@H](COP(=O)(O)O)[C@@H](O)[C@H]1O` [AMP, Adenosine 5ʹ-monophosphate] showed an Intake diff. ([1]; nucleotide 5 mM versus water) of 25.4 g and an Intake diff. ([2]; nucleotide 5 mM versus water) of 20.6 g.
`Nc1ccn([C@@H]2O[C@H](COP(=O)(O)O)[C@@H](O)[C@H]2O)c(=O)n1` [CMP, Cytidine 5ʹ-monophosphate] gave an Intake diff. ([1]; nucleotide 5 mM versus water) of 69.5 g.
For `Nc1nc2c(ncn2[C@@H]2O[C@H](COP(=O)(O)O)[C@@H](O)[C@H]2O)c(=O)[nH]1` [GMP, Guanosine 5ʹ-monophosphate], the Intake diff. ([1]; nucleotide 5 mM versus water) is given as 78.8 g, the “Concentration at which the assay started to respond” value ([3]; rat Gα15 chimera) is given as “around 0.01 mM” and the “Activation of cat Tas1r1-Tas1r3” value [3] is given as “strongly activated”. For the same molecule, the EC50 [4] was 0.32 mM and the “Concentration at which the assay started to respond” value ([4]; nucleotide alone) was “around 0.1 mM”.
In the case of `NCC(=O)O` [Glycine], the “Behavioral response of cats” value [5] is listed as “indifferent”, the Intake diff. ([1]; amino acid 25 mM versus water) is listed as 20.8 g and the Intake diff. ([2]; amino acid 25 mM versus water) is listed as 9.1 g.
In the case of `C[C@H](N)C(=O)O` [L-Alanine, reference compound], the “Behavioral response of cats” value [5] is given as “may be preferred to water”, the Intake diff. ([1]; amino acid 25 mM versus water) is given as 30.5 g and the Intake diff. ([2]; amino acid 25 mM versus water) is given as 16.9 g. The “Ligand binding to cat Tas1r1 VFT (conformational change)” value [6] was “active” and the EC50 [4] was 15.5 mM.
In the case of `N=C(N)NCCC[C@H](N)C(=O)O` [L-Arginine], the “Ligand binding to cat Tas1r1 VFT (conformational change)” value [6] is listed as “active”.
`NC(=O)C[C@H](N)C(=O)O` [L-Asparagine] gave an Intake diff. [1, 10] of 12.0 g, an Intake diff. [1, 11] of -20.9 g and an Intake diff. ([1]; amino acid 25 mM versus water) of 35.9 g. For the same molecule, the EC50 ([4]; read-out: wIMP EC50, L-amino acid with 0.2 mM IMP) was 15.7 mM.
For `N[C@@H](CC(=O)O)C(=O)O` [L-Aspartic acid], the “Activity as agonist or enhancer of the cat umami receptor” value (“Activity as agonist or enhancer” for short) [4] is listed as “did not respond” and the “Behavioral response of cats to the solutions” value [7] is listed as “avoided”.
In the case of `N[C@@H](CS)C(=O)O` [L-Cysteine], the Intake diff. ([1]; amino acid 25 mM versus water) is listed as 48.3 g, the Intake diff. ([2]; amino acid 25 mM versus water) is listed as 27.9 g and the “Ligand binding to cat Tas1r1 VFT (conformational change)” value [6] is listed as “inactive”. For the same molecule, the EC50 [4] was 13.1 mM.
For `N[C@@H](CCC(=O)O)C(=O)O` [L-Glutamic acid], the “Behavioral response of cats” value [5] is given as “avoided”, the “Activation of cat Tas1r1-Tas1r3” value [3] is given as “inactive alone” and the “Activity as agonist or enhancer” value [4] is given as “did not respond”. The “Behavioral response of cats to the solutions” value [7] was “avoided”.
For `N[C@@H](Cc1c[nH]cn1)C(=O)O` [L-Histidine], the “Behavioral response of cats” value [8] is given as “preferred”, the Intake diff. [1, 12] is given as 77.0 g and the Intake diff. [1, 10] is given as 91.5 g. The Intake diff. [1, 11] was 97.0 g, the Intake diff. ([1]; amino acid 25 mM versus water) was 43.7 g and the “Ligand binding to cat Tas1r1 VFT (conformational change)” value [6] was “active”. The EC50 [4] was 9.71 mM and the “Behavioral preference of cats” value ([7]; 100 mM, ref McGrane et al. 2013) was “significant behavioral preference”.
For `CC[C@H](C)[C@H](N)C(=O)O` [L-Isoleucine], the “Ligand binding to cat Tas1r1 VFT (conformational change)” value [6] is listed as “active”.
Molecule `CC(C)C[C@H](N)C(=O)O` [L-Leucine] has an Intake diff. ([1]; amino acid 25 mM versus water) of 36.6 g, an Intake diff. ([2]; amino acid 25 mM versus water) of 22.5 g and an EC50 [4] of 31.7 mM.
With `CSCC[C@H](N)C(=O)O` [L-Methionine] the Intake diff. ([1]; amino acid 25 mM versus water) was 35.8 g and the EC50 [4] was > 30 mM.
`N[C@@H](Cc1ccccc1)C(=O)O` [L-Phenylalanine] showed an Intake diff. ([1]; amino acid 25 mM versus water) of 34.5 g and an Intake diff. ([2]; amino acid 25 mM versus water) of 19.4 g.
In the case of `N[C@@H](CO)C(=O)O` [L-Serine], the Intake diff. ([1]; amino acid 25 mM versus water) is reported as 25.3 g, the Intake diff. ([2]; amino acid 25 mM versus water) is reported as 18.0 g and the EC50 [4] is reported as 14.1 mM.
In the case of `N[C@@H](Cc1c[nH]c2ccccc12)C(=O)O` [L-Tryptophan], the “Behavioral response of cats” value [8] is given as “avoided”, the “Solubility in assay buffer” value [9] is given as “insoluble at 60 mM” and the Intake diff. [1, 12] is given as 20.9 g. It also gave an Intake diff. [1, 10] of -11.6 g, an Intake diff. ([1]; amino acid 25 mM versus water) of 8.4 g and an Intake diff. ([2]; amino acid 25 mM versus water) of 10.0 g. It also gave an EC50 [4] of 6.32 mM.
For `N[C@@H](Cc1ccc(O)cc1)C(=O)O` [L-Tyrosine], the Intake diff. ([1]; amino acid 2.5 mM versus water) was -1.8 g and the EC50 [4] was 22.2 mM.
`N[C@@H](CCC(=O)O)C(=O)[O-].[Na+]` [MSG, monosodium glutamate] showed an Intake diff. ([1]; MSG 20 mM versus water) of 22.2 g and an Intake diff. ([1]; MSG 80 mM versus water) of -7.9 g.
With `NCCS(=O)(=O)O` [Taurine] the “Activity as agonist or enhancer” value [4] was “inactive”.
`O=c1ccn([C@@H]2O[C@H](COP(=O)(O)O)[C@@H](O)[C@H]2O)c(=O)[nH]1` [UMP, Uridine 5ʹ-monophosphate] gave an Intake diff. ([1]; nucleotide 5 mM versus water) of 67.0 g.
In the case of `O=c1[nH]c(=O)c2ncn([C@@H]3O[C@H](COP(=O)(O)O)[C@@H](O)[C@H]3O)c2[nH]1` [XMP, Xanthosine 5ʹ-monophosphate], the EC50 [4] is reported as 0.48 mM.
